Experimental findings from PubChem BioAssay (NCI) are described below.

Common to all, as to assay: growth of human tumour cells (NCI), 48 h
In test [1] the test system is HCC-2998 colon.
The subject of test [2] is HCT-116 colon.
The subject of test [3] is HOP-62 NSCLC.
Test [4] relates to M14 melanoma.
Test [5] relates to NCI-H460 lung.
For test [6], the system named is SK-OV-3 ovarian.
The subject of test [7] is SNB-75 CNS.
Test [8] relates to SW-620 colon.

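Results reflect a 48-hour exposure of cells in 96-well plates to compound at five concentrations. Abbreviation: GI50, concentration required for 50% inhibition of growth. TGI is the concentration that stops growth completely.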 Some results are limits rather than exact numbers.

For `Cn1cc(C(=O)/C(Cl)=C(\Cl)C(=O)O)c2ccccc21`, the TGI in test [1], in test [2], in test [3], in test [4], in test [5] and in test [6] was over 100 µM each time. Besides, the TGI in test [7] and in test [8] was over 100 µM in each case.
As to `C/C=C/CP(=O)(c1ccccc1)c1ccccc1`, the TGI in test [1], in test [2], in test [3], in test [4], in test [5] and in test [6] was over 100 µM in each case. Further, the TGI in test [7] and in test [8] was over 100 µM each time.
For the molecule `O=C(CC1(O)C(=O)Nc2ccccc21)c1ccc(O)cc1O` (configuration not stated), the TGI in test [2], in test [3], in test [4], in test [5], in test [6] and in test [7] was over 100 µM each time. In test [8], this molecule yielded a TGI of over 100 µM.
Regarding `NC1=NN(c2ccccc2)C(=O)C1C(=O)C(=O)Nc1cccc(C(F)(F)F)c1` (configuration not stated), the TGI in test [1], in test [2], in test [3], in test [4], in test [5] and in test [6] was over 100 µM in each case. The molecule also came in with a TGI in test [8] of over 100 µM.
With `O=C(Nc1ccc(N=Nc2ccccc2)cc1)Sc1ccccc1C(=O)O`, the TGI in test [1], in test [2], in test [3], in test [4], in test [5] and in test [7] was over 100 µM throughout. Besides, the TGI in test [8] was over 100 µM.
As to `O[C@H]1[C@H]2[C@H](O)CCCN2C[C@H]1O`, the TGI in test [1], in test [2], in test [3], in test [4], in test [5] and in test [6] was over 100 µM each time. The TGI in test [7] and in test [8] was over 100 µM throughout.
Turning to `COC1=CC(C)C2C[C@H]3O[C@H](O)C[C@H]4C(C)C(=O)C(O)C([C@@]2(C)C1=O)[C@@]34C` (some centres not stated), the TGI in test [1], in test [2], in test [4], in test [5], in test [6] and in test [7] was over 100 µM in each case. In test [8], the TGI was over 100 µM.
For `N#Cc1c(C(N)=O)ncn1Cc1ccccc1`, the TGI in test [1], in test [2], in test [3], in test [4], in test [5] and in test [6] was over 100 µM throughout. Further, the TGI in test [7] and in test [8] was over 100 µM in each case.
With `O=C1CC(c2ccccc2)NCN1` (configuration not stated), the TGI in test [1], in test [2], in test [3], in test [4], in test [6] and in test [7] was over 100 µM each time. This molecule returned a TGI in test [8] of over 100 µM.
Turning to `COc1ccc(C(=O)O)c2c(=O)c3ccccc3[nH]c12`, the TGI in test [1] was over 100 µM; in test [2], over 100 µM; in test [3] it was over 31.6 µM; in test [4], over 31.6 µM; in test [5], over 100 µM; in test [6] it was over 100 µM. In test [8], the TGI was over 100 µM.
Consider `COc1ccc(C2c3cc4c(cc3OC(O)(CO)C2C(=O)O)OCO4)c(OC)c1OC` (configuration not stated) (tested in a mixture with another compound), for which the TGI in test [2], in test [3], in test [4], in test [5], in test [6] and in test [7] was over 100 µM each time. Also, the TGI in test [8] was over 100 µM.
On to `CC1(C)OC(=O)C=C(O)O1.CC1(C)OC(=O)C=C(O)O1.CCO.Oc1ccc2c(c1)CCC2.[Ti]`, for which the GI50 in test [2], in test [3], in test [4], in test [5], in test [6] and in test [7] was over 100 µM throughout. Also, the GI50 in test [8] was over 100 µM. The TGI in test [2], in test [3], in test [4], in test [5], in test [6] and in test [7] was over 100 µM throughout. For the same molecule, the TGI in test [8] was over 100 µM.
On to `NC(=S)N/N=C1\C(=O)N(c2cccc([N+](=O)[O-])c2)C(=O)C1C(=O)Nc1cccc([N+](=O)[O-])c1` (configuration not stated), for which the TGI in test [1], in test [2], in test [3], in test [4], in test [6] and in test [7] was over 100 µM in each case. The molecule also yielded a TGI in test [8] of over 100 µM.
